Source: patent US7083655B2, “Hair dye composition” (Kao Corporation, priority 2002, dated 2006)

Experiment: Measurement of pKa value (spectrophotometric titration)
Type: physicochemical
Conditions: 2×10^−5 mol/l, titrated from pH 2 with NaOH, UV-visible spectrum; for pKa: DMF/water (1/1) solution, read-out: pKa value determined; for pKa value determined: DMF/water (1/1)
Experimental: pKa values of the azo dyes described below were determined by the following method; The dye was dissolved in a solution of a DMF/water (1/1) volume ratio to a final concentration of 2×10^−5 mol/l. After the resulting solution was adjusted to pH 2, using 1.0 mol/l hydrochloric acid, the solution was titrated with aqueous 1.0 mol/l sodium hydroxide solution. Recording the change of the visible ultra-violet absorption spectrum, the inflection point was determined by regression analysis.

Row | pKa | pKa value determined | Compound
1 | 6.04 |  | CC(=O)Nc1cc(/N=N/c2nncs2)ccc1O [Dye D-29]
2 | 3.05 |  | CCSc1nsc(/N=N/c2cc(Cl)c(O)c(NC(=O)CC)c2)n1 [Dye D-30]
3 | 3.5 |  | CCSc1nsc(/N=N/c2cc(Cl)c(O)cc2Cl)n1 [Dye D-38]
4 | 4.46 |  | Oc1cc(Cl)c(/N=N/c2nc3ccc(Cl)cc3s2)cc1Cl [Dye D-40]
5 | 5.15 |  | CC(=O)Nc1cc(/N=N/c2nncs2)c(NC(C)=O)cc1O [Dye D-46]
6 | 3.56 |  | Oc1c(Cl)cc(/N=N/c2nncs2)cc1Cl [Dye D-56]

Continued, compound first:

Row | Compound | pKa | pKa value determined
7 | Cc1cc(/N=N/c2nc(-c3cccc(NS(C)(=O)=O)c3)ns2)cc(NCOc2ccccc2NS(C)(=O)=O)c1O [Dye D-34] |  | 4.39
8 | Cc1cc(/N=N/c2snc(C)c2C#N)ccc1O [Dye D-37] | 6.37 | 
9 | COc1cc(/N=N/c2snc(C)c2C#N)ccc1O [Dye D-39] | 5.52 | 
10 | Cc1nsc(/N=N/c2ccc(O)c(Cl)c2)c1C#N [Dye D-41] | 5.02 | 
11 | Cc1nsc(/N=N/c2cc(F)c(O)c(F)c2)c1C#N [Dye D-43] | 3.9 | 
12 | CC(C)CSc1nnc(/N=N/c2cc(Cl)c(O)c(Cl)c2Cl)s1 [Dye D-45] | 2.28 | 
13 | Oc1c(NCOc2ccncc2)cc(/N=N/c2nc(-c3ccccc3)no2)c2ccccc12 [Dye D-49] |  | 5.39
